Assay results from ChEMBL document CHEMBL3244399, “Antifungal agents. 4. Chemical modification of antibiotics from Polyangium cellulosum var. fulvum. Ester and amide analogues of ambruticin” (1979).
≈ marks a conversion by molar mass, not a printed value. Calls of active or inactive are those of the source. The rule behind the calls is not given here.

How the values were obtained:
[1] = system: Streptococcus pyogenes; experiment: Antifungal activity against Streptococcus pyogenes assessed as growth inhibition by standard broth dilution method; type: functional
[2] = system: Candida albicans; experiment: Antifungal activity against Candida albicans assessed as growth inhibition by standard broth dilution method; type: functional, organism-based
[3] = system: Histoplasma capsulatum; experiment: Antifungal activity against Histoplasma capsulatum assessed as growth inhibition by standard broth dilution method; type: functional
[4] = Antifungal activity against Microsporum fulvum assessed as growth inhibition by standard broth dilution method; type: functional; details: Arthroderma fulvum

| Compound | MIC [1] | inhibition [2] | MIC [3] | MIC [4] |
| --- | --- | --- | --- | --- |
| CC[C@H]1O[C@@H](/C(C)=C/[C@H](C)/C=C/[C@H]2[C@@H](C)[C@@H]2/C=C/[C@@H]2O[C@H](CC(=O)OC)C[C@@H]3OC(=O)O[C@@H]23)CC=C1C (relative stereo) | inactive | inactive | 0.78 µg/mL (≈ 1.52 µM) | 0.39 µg/mL (≈ 0.758 µM) |
| CC[C@H]1O[C@@H](/C(C)=C/[C@H](C)/C=C/[C@H]2[C@@H](C)[C@@H]2/C=C/[C@@H]2O[C@H](CC(=O)N3CCCC3)C[C@H](OC(C)=O)[C@H]2OC(C)=O)CC=C1C | inactive | inactive | 50 µg/mL (≈ 81.7 µM) | > 50 µg/mL |
| CC[C@H]1O[C@@H](/C(C)=C/[C@H](C)/C=C/[C@H]2[C@@H](C)[C@@H]2/C=C/[C@@H]2O[C@H](CC(=O)OC)C[C@H](O)[C@H]2O)CC=C1C (relative stereo) | inactive | inactive | 0.39 µg/mL (≈ 0.798 µM) | 0.39 µg/mL (≈ 0.798 µM) |
| CC[C@H]1O[C@@H](/C(C)=C/[C@H](C)/C=C/[C@H]2[C@@H](C)[C@@H]2/C=C/[C@@H]2O[C@H](CC(=O)OC)C[C@H](OC(=O)Nc3ccccc3)[C@H]2OC(=O)Nc2ccccc2)CC=C1C | inactive | inactive | 25 µg/mL (≈ 34.4 µM) | > 50 µg/mL |
| CC[C@H]1O[C@@H](/C(C)=C/[C@H](C)/C=C/[C@H]2[C@@H](C)[C@@H]2/C=C/[C@@H]2O[C@H](CC(=O)N3CCCCC3)C[C@H](O)[C@H]2O)CC=C1C | 1.56 µg/mL (≈ 2.88 µM) | inactive | 3.12 µg/mL (≈ 5.76 µM) | 0.78 µg/mL (≈ 1.44 µM) |
| CC[C@H]1O[C@@H](/C(C)=C/[C@H](C)/C=C/[C@H]2[C@@H](C)[C@@H]2/C=C/[C@@H]2O[C@H](CC(=O)O)C[C@H](O)[C@H]2O)CC=C1C (relative stereo) [AMBRUTICIN] | 25 µg/mL (≈ 52.7 µM) | inactive | 0.195 µg/mL (≈ 0.411 µM) | 0.098 µg/mL (≈ 0.206 µM) |
| CC[C@H]1O[C@@H](/C(C)=C/[C@H](C)/C=C/[C@H]2[C@@H](C)[C@@H]2/C=C/[C@@H]2O[C@H](CC(=O)NC3CCCCC3)C[C@H](OC(C)=O)[C@H]2OC(C)=O)CC=C1C | inactive | inactive | > 50 µg/mL | > 50 µg/mL |
| CC[C@H]1O[C@@H](/C(C)=C/[C@H](C)/C=C/[C@H]2[C@@H](C)[C@@H]2/C=C/[C@@H]2O[C@H](CC(=O)NCc3ccccc3)C[C@H](O)[C@H]2O)CC=C1C | 3.12 µg/mL (≈ 5.53 µM) | inactive | 6.25 µg/mL (≈ 11.1 µM) | > 50 µg/mL |
| CCCC(=O)O[C@H]1[C@H](/C=C/[C@H]2[C@H](C)[C@@H]2/C=C/[C@@H](C)/C=C(\C)[C@H]2CC=C(C)[C@@H](CC)O2)O[C@H](CC(=O)O)C[C@@H]1OC(=O)CCC | 6.25 µg/mL (≈ 10.2 µM) | inactive | 12.5 µg/mL (≈ 20.3 µM) | > 50 µg/mL |
| CC[C@H]1O[C@@H](/C(C)=C/[C@H](C)/C=C/[C@H]2[C@@H](C)[C@@H]2/C=C/[C@@H]2O[C@H](CC(=O)N(C(=O)NC3CCCCC3)C3CCCCC3)C[C@H](OC(C)=O)[C@H]2OC(C)=O)CC=C1C | inactive | inactive | > 50 µg/mL | > 50 µg/mL |
| CC[C@H]1O[C@@H](/C(C)=C/[C@H](C)/C=C/[C@H]2[C@@H](C)[C@@H]2/C=C/[C@@H]2O[C@H](CC(=O)N3CCCC3)C[C@H](O)[C@H]2O)CC=C1C | 3.12 µg/mL (≈ 5.91 µM) | inactive | 0.39 µg/mL (≈ 0.739 µM) | 0.78 µg/mL (≈ 1.48 µM) |
| CC[C@H]1O[C@@H](/C(C)=C/[C@H](C)/C=C/[C@H]2[C@@H](C)[C@@H]2/C=C/[C@@H]2O[C@H](CC(=O)N(C(=O)NC3CCCCC3)C3CCCCC3)C[C@H](O)[C@H]2O)CC=C1C | inactive | inactive | > 50 µg/mL | > 50 µg/mL |
| CC[C@H]1O[C@@H](/C(C)=C/[C@H](C)/C=C/[C@H]2[C@@H](C)[C@@H]2/C=C/[C@@H]2O[C@H](CC(=O)OC)C[C@H](OC(=O)Nc3ccc(Cl)cc3)[C@H]2OC(=O)Nc2ccc(Cl)cc2)CC=C1C | inactive | inactive | 50 µg/mL (≈ 62.8 µM) | > 50 µg/mL |
| CC[C@H]1O[C@@H](/C(C)=C/[C@H](C)/C=C/[C@H]2[C@@H](C)[C@@H]2/C=C/[C@@H]2O[C@H](CC(=O)O)C[C@H](OC(C)=O)[C@H]2OC(C)=O)CC=C1C (relative stereo) | 6.25 µg/mL (≈ 11.2 µM) | inactive | 3.12 µg/mL (≈ 5.58 µM) | 3.12 µg/mL (≈ 5.58 µM) |
| CCC(=O)O[C@H]1[C@H](/C=C/[C@H]2[C@H](C)[C@@H]2/C=C/[C@@H](C)/C=C(\C)[C@H]2CC=C(C)[C@@H](CC)O2)O[C@H](CC(=O)O)C[C@@H]1OC(=O)CC | 6.25 µg/mL (≈ 10.7 µM) | inactive | 6.25 µg/mL (≈ 10.7 µM) | > 50 µg/mL |
| CC[C@H]1O[C@@H](/C(C)=C/[C@H](C)/C=C/[C@H]2[C@@H](C)[C@@H]2/C=C/[C@@H]2O[C@H](CC(=O)NCc3ccccc3)C[C@H](OC(C)=O)[C@H]2OC(C)=O)CC=C1C | – | inactive | – | – |
| CCCCNC(=O)C[C@@H]1C[C@H](O)[C@@H](O)[C@H](/C=C/[C@H]2[C@H](C)[C@@H]2/C=C/[C@@H](C)/C=C(\C)[C@H]2CC=C(C)[C@@H](CC)O2)O1 | 1.56 µg/mL (≈ 2.94 µM) | inactive | 1.56 µg/mL (≈ 2.94 µM) | 6.25 µg/mL (≈ 11.8 µM) |
| CC[C@H]1O[C@@H](/C(C)=C/[C@H](C)/C=C/[C@H]2[C@@H](C)[C@@H]2/C=C/[C@@H]2O[C@H](CC(=O)OC)C[C@H](OC=O)[C@H]2OC=O)CC=C1C | inactive | inactive | 3.12 µg/mL (≈ 5.73 µM) | 12.5 µg/mL (≈ 22.9 µM) |
| CC[C@H]1O[C@@H](/C(C)=C/[C@H](C)/C=C/[C@H]2[C@@H](C)[C@@H]2/C=C/[C@@H]2O[C@H](CC(=O)N3CCCCC3)C[C@H](OC(C)=O)[C@H]2OC(C)=O)CC=C1C | – | inactive | – | – |
| CC[C@H]1O[C@@H](/C(C)=C/[C@H](C)/C=C/[C@H]2[C@@H](C)[C@@H]2/C=C/[C@@H]2O[C@H](CC(=O)NC3CCCCC3)C[C@H](O)[C@H]2O)CC=C1C | – | inactive | 3.12 µg/mL (≈ 5.61 µM) | 25 µg/mL (≈ 45 µM) |
| CC[C@H]1O[C@@H](/C(C)=C/[C@H](C)/C=C/[C@H]2[C@@H](C)[C@@H]2/C=C/[C@@H]2O[C@H](CC(=O)O)C[C@H](OC=O)[C@H]2OC=O)CC=C1C | 25 µg/mL (≈ 47.1 µM) | inactive | 1.56 µg/mL (≈ 2.94 µM) | 1.56 µg/mL (≈ 2.94 µM) |
| CC[C@H]1O[C@@H](/C(C)=C/[C@H](C)/C=C/[C@H]2[C@@H](C)[C@@H]2/C=C/[C@@H]2O[C@H](CC(=O)OC)C[C@H](OC(C)=O)[C@H]2OC(C)=O)CC=C1C (relative stereo) | inactive | inactive | 12.5 µg/mL (≈ 21.8 µM) | > 50 µg/mL |
| CCCCNC(=O)C[C@@H]1C[C@H](OC(C)=O)[C@@H](OC(C)=O)[C@H](/C=C/[C@H]2[C@H](C)[C@@H]2/C=C/[C@@H](C)/C=C(\C)[C@H]2CC=C(C)[C@@H](CC)O2)O1 | – | inactive | – | – |
